Patent US20130259929A1, “USE OF A PHOSPHOPEPTIDE ABLE TO BLOCK HER3/P85 INTERACTION FOR THE TREATMENT OF HER2 HYPER-EXPRESSING TUMOURS” (priority 2010, published 2013)
Non-standard residues stand in square brackets, D forms with d. No end group written: not given here. pY = N[C@@H](Cc1ccc(OP(=O)(O)O)cc1)C(=O)O

Experiments:
[1] = system: PI3K activity measured as Akt phosphorylation; assay: Akt phosphorylation (Western blot) after peptide transfection; assay type: cell-based, human; conditions: for inhibition of PI3K activity measured as inhibition level of Akt phosphorylation: MCF7 cells, peptide transfection at different doses (FIG. 12)
Description: Peptide transfection. In order to inhibit the p85 and ErbB3 interaction, MCF7, BT474 and MDA-MB-453 cell lines have been transfected using 80, 100, and 180 μg, respectively, of the following phosphopeptides:
(§1) Treatments and lmmunodecorations. […] Briefly the cells have been plated at 5×10^5 concentration in 60 mm plates. […] At the end of the treatment the cells have been lysed with RIPA buffer [150 mM NaCl, 1% NP-40, 0,5% sodium deoxycholate (DOC), 0.1% SDS, 50 mM TrisHCl (pH 8), 1 mM PMSF, 1 mM EGTA, 50 mM NaF, 50 mM Na3VO4 and protease inhibitors (Roche, Milano, IT)] in order to analyze the expression levels of phosphorylated and total ErbB-3, ErbB-2, ERK and HSP-70 proteins. In order to analyze the levels of Akt phosphorylation and expression, the cells have been lysed in NP-40 buffer [1% NP-40, 10% glycerol, 137 mM NaCl, 20 mM TrisHCl (pH 7.4), 50 mM NaF, 1 mM PMSF, 5 mM Na3VO4, protease inhibitors (Roche, Milano, IT)]. Cell lysates have been incubated on ice for 20 minutes and centrifuged at 14000 rpm for 20 minutes. RIPA buffer obtained cell extracts have been boiled for 5 minutes at 95° C., while NP40 buffer lysed samples have been boiled at 65° C. for 5 minutes. Samples have been subjected to SDS-PAGE and transferred on nitrocellulose filters (Bio-Rad, Milan, IT). Then the filters have been incubated with interest antibodies, washed and incubated with specific secondary horse radish peroxidase (HRP) conjugated antibodies. After thorough washing, nitrocellulose peroxidase activity has been detected by chemiluminescence (Lite-blot-Euroclone, Milano, IT)

[2] = system: HER3; assay: HER3 expression level (Western blot) after peptide transfection; assay type: cell-based, human; conditions: after peptide treatment (FIG. 4A); poorly appreciable in MDA-MB-453
Description: as §1

## RDGGGPGGDpYAAMGACPA (RDGGGPGGD[pY]AAMGACPA; listed as Homo sapiens) [1257 phosphopeptide]
[1]; MCF7, BT474 and MDA-MB-453 cells (FIG. 4A), Herceptin where combined
  phosphorylation of Akt: inhibition the phosphorylation of Akt
[1]
  inhibition of PI3K activity measured as inhibition level of Akt phosphorylation: remarkably inhibits Akt phosphorylation
[1]; listed as 1257 peptide
  inhibition of PI3K activity measured as inhibition level of Akt phosphorylation: high efficiency
[1]; stability inside of cell (FIG. 5A)
  time after transfection for which Akt phosphorylation is inhibited: up to 6 days
[2]
  total level of HER3: decrease
